# Reference: ChEMBL document CHEMBL1123660 (J Med Chem, 1987)
# pKi: −log10 of the molar value.
# How the values were obtained:
# [1] = system: Platelet-activating factor receptor (Oryctolagus cuniculus); assay: Percent inhibition of [3H]PAF to platelet-activating factor (PAF) receptor from rabbit platelet membranes at; conditions: concentration not given here
# Oryctolagus cuniculus = organism: Oryctolagus cuniculus; assay: PAF antagonism was determined by rabbit platelet inhibition and neurophil aggregation and degranulation at 0.1 to 1 uM concentration.; assay type: functional
Structure (SMILES),inhibition [1] [%],pKi (Oryctolagus cuniculus)
CCCC1=C[C@]2(OC)C(=CC1=O)O[C@H](c1ccc(OC)c(OC)c1)[C@H]2C,61,–
C=CCC1=C[C@@]2(OC)C(=CC1=O)O[C@H](c1ccc(OC)c(OC)c1)[C@H]2C (stereo in doubt) [KADSURENONE],–,7.24
